From US6288085A, “Piperidine derivatives for treating psychoses” (Akzo Nobel N.V., priority 1996, dated 2001)

Assays:
Catalepsy in rats (CATR) = format: in vivo, Male Wistar rats; conditions: rat; catalepsy assessed at 60 and 120 minutes after drug administration
Experimental: (§1) Catalepsy in rats: Male Wistar rats (100-125 g, Olac UK) were used for catalepsy experiments. Catalepsy was assessed as described previously (Broekkamp et al, Naunyn Schmiedeberg's Arch. Pharmacol. 338, 191 1988). Briefly, rats were tested in 6 different observation trials in which the animals were placed in abnormal postures and scored positively with one point for maintaining the imposed posture for 10s. The imposed postures were; vertical clinging to a grid, upright standing with a high support for the front paws, extension of hindlegs, placement on back, placement of spatula in the mouth and rotation in a wire mesh cylinder.
(§2) Theoretically a maximum score of 6 can be reached. Catalepsy was assessed at 60 and 120 minutes after drug administration. The data were evaluated by 2 way ANOVAR followed by a Newman Kools post hoc test and ED50 values calculated (Table II).

catalepsy = test: Catalepsy in rats (CATR); format: in vivo, Male Wistar rats
Experimental: as §1, §2

[1] = tested on: climbing behaviour in mice, induced by apomorphine (dopamine receptors); test: Apomorphine climbing test (ACT) in mice; format: in vivo; conditions: Mus musculus, 0.75 mg/kg apomorphine HCl sc after 30 min, scored at 10 and 20 min
Excerpt: Apomorphine Climbing Test In Mice
The ability of dopamine receptor antagonists to inhibit the behavioural effects in rodents caused by dopamine agonists such as apomorphine is a well established criterion for predicting the antipsychotic efficacy of these drugs in man (see e.g. W. C. Bowman and M. J. Rand, Textbook of Pharmacology, 2nd ed., 1980, 15, 6). A particularly relevant test in this respect is the apomorphine climbing test (ACT) which measures the ability of a dopamine antagonist to inhibit the climbing behaviour in mice, induced by the subcutaneous or oral administration of apomorphine. Activity in this test, following systemic and oral administration, has been widely used as a predictor of antipsychotic activity i.e. anti-schizophrenic activity (see e.g. J. T Strupczewski et.al., J. Med. Chem., 1995, 38, 1119). Mice treated with apomorphine HCl tend to adopt a vertical position along the wall of a wire mesh cylinder, standing or climbing. This climbing behaviour is considered to be elicited by apomorphine-mediated stimulation of dopamine receptors. […] Test compounds which modulate this climbing behaviour may have anti-psychotic activity.
The various treatments are randomly distributed over the mice. Each experiment consists of 1+n treatment groups: 1 being a control group of 12 mice receiving apomorphine and vehicle subcutaneously or being a control group of 12 mice receiving apomorphine subcutaneously and vehicle orally; n being (usually 4) compound groups of 12 mice receiving apomorphine and test compound subcutaneously or being compound groups of 12 mice receiving apomorphine subcutaneously and test compound orally.
Experiments are performed in 3 runs of 20 mice each. The mice are marked and weighed, test compound or vehicle is administered subcutaneously and the mice are placed in small Macrolon cages of 17×11×13 cm, 5 mice per cage, or test compound or vehicle is administered orally and the mice are placed in Macrolon cages of 29×11×13 cm, 5 mice per cage. After 30 min 0.75 mg/kg apomorphine HCl is administered subcutaneously in mice treated subcutaneously with vehicle or test compound, or 0.75 mg/kg apomorphine HCl is administered subcutaneously in mice treated orally with vehicle or test compound, and the mice are placed individually in a wire mesh cylinder (diameter 12 cm, height 14 cm).
At 10 min after the treatment with apomorphine the climbing behaviour of each mouse is observed and expressed as a score, according to the following grade: […]
4 paws on the floor score 0
1 or 2 paws holding the wall score 1
3 or 4 paws holding the wall score 2
At 20 min after the treatment with apomorphine the climbing behaviour is observed and scored again. For each treatment group the mean score per mouse is determined. The score of the control group should be at least 1.0; if not, the trial is rejected. The final result per group is expressed as the percentage over the control group.
The results of this test for the present test compounds are denoted in Table I (subcutaneous and oral administration of test compound).

[2] = po administration of test compound
[3] = sc administration of test compound

| Structure (SMILES) | ED50 (Catalepsy in rats (CATR)) | CATR score at max dose (catalepsy; rat, in vivo, 14 mg/kg) | ED50 [1, 2] | ED50 [1, 3] | CATR score at max dose (catalepsy; at 75 mg/kg, theoretical maximum score 6, 60 and 120 minutes) | CATR score at max dose (catalepsy; at 56 mg/kg, theoretical maximum score 6, 60 and 120 minutes) |
| --- | --- | --- | --- | --- | --- | --- |
| CN(C)CCCN1c2ccccc2Sc2ccc(Cl)cc21 [chlorpromazine, reference compound] | 4.8 mg/kg | 5.3 | – | – | – | – |
| Cc1csc(C(=C2CCN(C)CC2)c2ccc(F)cc2)c1 [Example 3, 1-methyl-4-[(4-methyl-2-thienyl)-(4-fluoropheny)]methylene-piperidine] | > 75 mg/kg | – | 8.6 mg/kg | 1.5 mg/kg | 0.2 | – |
| CN1CCC(=C(c2ccccc2)c2ccc(Cl)s2)CC1 [Compound C, 1-methyl-4-[(-5-chloro-2-thienyl)-phenyl]methylenepiperidine, reference compound] | – | – | – | 22 mg/kg | – | – |
| CN1CCC(=C(c2ccccc2)c2cccs2)CC1 [Compound B, 1-methyl-4-(2-thienyl)-phenyl-methylenepiperidine, reference compound] | – | – | – | 22 mg/kg | – | – |
| CN1CCC(=C(c2ccc(F)cc2)c2cccs2)CC1 [Compound A, 1-methyl-4-[(2-thienyl)-(4-fluorophenyl)]methylenepiperidine, reference compound] | – | – | 100 mg/kg | 2.8 mg/kg | – | – |
| CN1CCC(=C(c2ccc(F)cc2)c2cc(Cl)cs2)CC1 [Example 2, 1-methyl-4-[(4-chloro-2-thienyl)-(4-fluorophenyl)]-methylene-piperidine] | > 50 mg/kg | – | 5 mg/kg | 0.6 mg/kg | – | 0.2 |
